Reference: ChEMBL document CHEMBL3885861, “Open TG-GATES”

Species: Rattus norvegicus
Test: Open TG-GATES - Regimen: Daily Repeat
Type: toxicity, organism-based, Sprague-Dawley
Set-up: regimen Daily Repeat, gender Male, age 6 weeks
Details: in vivo, po, 15 mg/kg, route gavage, dose level Middle; for APTT / Bas / Eos / Fbg / Hb / Ht / Lym / MCH / MCHC / MCV / Mono / Neu / PT / Plat / RBC / Ret / WBC: tissue Blood; for LIVER: tissue Liver; for A/G / ALP / ALT / AST / BUN / CRE / Ca / Cl / DBIL / GLC / IP / K / LDH / Na / PL / RALB / TBIL / TC / TG / TP / gamma-GTP: tissue Plasma

## C=C(C)[C@H]1Cc2c(ccc3c2O[C@@H]2COc4cc(OC)c(OC)cc4[C@@H]2C3=O)O1 [ROTENONE]
72 h, time 3 day
  TERMINAL_BW: 217.2 g
  APTT: 15.9 s
  Bas: 0%
  Eos: 1%
  Fbg: 211.8 mg/dL
  Hb: 13.1 g/dL
  Ht: 40.2%
  Lym: 71%
  MCH: 20.9 pg
  MCHC: 32.7%
  MCV: 63.9 fL
  Mono: 7.8%
  Neu: 20.4%
  PT: 11.8 s
  Plat: 122 x10_4/uL
  RBC: 628.8 x10_4/ul
  Ret: 6.1%
  WBC: 99.8 x10_2/uL
  LIVER: 10.7 g
  A/G: 2.2
  ALP: 1449.2 IU/L
  ALT: 37.8 IU/L
  AST: 70.6 IU/L
  BUN: 17 mg/dL
  CRE: 0.4 mg/dL
  Ca: 11.8 mg/dL
  Cl: 104.2 meq/L
  DBIL: 0.014 mg/dL
  GLC: 188.4 mg/dL
  IP: 7.3 mg/dL
  K: 4.3 meq/L
  LDH: 117 IU/L
  Na: 141.8 meq/L
  PL: 149.8 mg/dL
  RALB: 3.7 g/dL
  TBIL: 0.038 mg/dL
  TC: 79.2 mg/dL
  TG: 104.8 mg/dL
  TP: 5.5 g/dL
  gamma-GTP: 0.6 IU/L
[…], time 7 day
  TERMINAL_BW: 254.3 g
  APTT: 17 s
  Bas: 0%
  Eos: 1%
  Fbg: 237.8 mg/dL
  Hb: 13.3 g/dL
  Ht: 40.4%
  Lym: 74.2%
  MCH: 20.6 pg
  MCHC: 32.8%
  MCV: 62.9 fL
  Mono: 5.8%
  Neu: 19.2%
  PT: 11.4 s
  Plat: 140.2 x10_4/uL
  RBC: 643.4 x10_4/ul
  Ret: 5%
  WBC: 113.4 x10_2/uL
  LIVER: 13 g
  A/G: 2.2
  ALP: 1376.6 IU/L
  ALT: 35.4 IU/L
  AST: 67 IU/L
  BUN: 17.2 mg/dL
  CRE: 0.4 mg/dL
  Ca: 11.5 mg/dL
  Cl: 103.2 meq/L
  DBIL: 0.016 mg/dL
  GLC: 198.6 mg/dL
  IP: 7.4 mg/dL
  K: 4.3 meq/L
  LDH: 110.8 IU/L
  Na: 140.4 meq/L
  PL: 150.6 mg/dL
  RALB: 3.8 g/dL
  TBIL: 0.036 mg/dL
  TC: 82.4 mg/dL
  TG: 105.2 mg/dL
  TP: 5.6 g/dL
  gamma-GTP: 1 IU/L
[…], time 14 day
  TERMINAL_BW: 305.1 g
  APTT: 15.6 s
  Bas: 0%
  Eos: 1%
  Fbg: 240.8 mg/dL
  Hb: 13.8 g/dL
  Ht: 41.7%
  Lym: 75.2%
  MCH: 20.6 pg
  MCHC: 33%
  MCV: 62.3 fL
  Mono: 3.8%
  Neu: 20.2%
  PT: 11.5 s
  Plat: 130 x10_4/uL
  RBC: 670.4 x10_4/ul
  Ret: 3.8%
  WBC: 127.2 x10_2/uL
  LIVER: 14.1 g
  A/G: 2.1
  ALP: 1261.6 IU/L
  ALT: 36.2 IU/L
  AST: 68.4 IU/L
  BUN: 18.4 mg/dL
  CRE: 0.4 mg/dL
  Ca: 11.6 mg/dL
  Cl: 105 meq/L
  DBIL: 0.01 mg/dL
  GLC: 188.6 mg/dL
  IP: 6.9 mg/dL
  K: 4.4 meq/L
  LDH: 103.6 IU/L
  Na: 139.6 meq/L
  PL: 140 mg/dL
  RALB: 3.9 g/dL
  TBIL: 0.028 mg/dL
  TC: 77.4 mg/dL
  TG: 95.2 mg/dL
  TP: 5.7 g/dL
  gamma-GTP: 1 IU/L
[…], time 28 day
  TERMINAL_BW: 389.3 g
  APTT: 18 s
  Bas: 0%
  Eos: 1.2%
  Fbg: 196.8 mg/dL
  Hb: 14.9 g/dL
  Ht: 45.4%
  Lym: 77.8%
  MCH: 18.9 pg
  MCHC: 32.8%
  MCV: 57.7 fL
  Mono: 5%
  Neu: 16.2%
  PT: 12.5 s
  Plat: 126.2 x10_4/uL
  RBC: 786 x10_4/ul
  Ret: 1.8%
  WBC: 111.5 x10_2/uL
  LIVER: 17.3 g
  A/G: 2
  ALP: 1146.8 IU/L
  ALT: 29.2 IU/L
  AST: 62 IU/L
  BUN: 19.5 mg/dL
  CRE: 0.4 mg/dL
  Ca: 10.9 mg/dL
  Cl: 105.2 meq/L
  DBIL: 0.01 mg/dL
  GLC: 186 mg/dL
  IP: 5.7 mg/dL
  K: 4.5 meq/L
  LDH: 124.8 IU/L
  Na: 141 meq/L
  PL: 150.8 mg/dL
  RALB: 3.9 g/dL
  TBIL: 0.0325 mg/dL
  TC: 68.5 mg/dL
  TG: 180.2 mg/dL
  TP: 5.9 g/dL
  gamma-GTP: 1 IU/L
